Experimental findings from publication PMC5100903, “Tissue Kallikrein Inhibitors Based on the Sunflower Trypsin Inhibitor Scaffold – A Potential Therapeutic Intervention for Skin Diseases” (PLoS ONE, 2016) are described below.

Read-outs that look alike come from different tables or passages of the source. Positions of bridges follow the written chain, without caps; N, C: chain ends. Residues, ends and D or L forms follow the SMILES beside them.

What all share (assay): biochemical
One experiment has as its target T1, KLK8 (Homo sapiens, UniProt O60259).
T1 construct: purchased R&D
T1 sequence (O60259 33-260): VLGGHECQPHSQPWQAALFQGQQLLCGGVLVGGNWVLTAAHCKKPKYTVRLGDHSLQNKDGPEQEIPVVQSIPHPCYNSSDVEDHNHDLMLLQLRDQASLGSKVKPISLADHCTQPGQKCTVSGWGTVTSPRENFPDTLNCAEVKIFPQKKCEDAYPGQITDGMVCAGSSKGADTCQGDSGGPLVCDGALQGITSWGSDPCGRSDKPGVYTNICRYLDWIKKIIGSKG
The procedure:
(§1) All assays were performed on 96-well microplates and the change in relative fluorescence unit (RFU) was measured by fluorescence spectrometer (BMG FLUOstar OPTIMA). The excitation/emission wavelength was 360/460 nm for the substrate Boc-VPR-AMC (Bachem AG, Hauptstrasse, Switzerland) and MeOSuc-AAPV-AMC (Bachem AG, Hauptstrasse, Switzerland) and 485/520 nm for BODIPY_FL casein (Invitrogen, Carlsbad, US). Stock solution of Boc-VPR-AMC was prepared by dissolving the solid in dimethyl sulfoxide to 100 mM and 10 mM for MeOSuc-AAPV. For BODIPY_FL casein, it was reconstituted to 1 mg/mL in 1xPBS. […] The % of inhibition was calculated by the following equation: % of Inhibition=(1−(Sample RFU − Min RFU)/(Max RFU − Min RFU)) X100
(§2) Each inhibition curves were done in triplicates with a minimum of five concentration points fitted. Fitting of each curve was done using SigmaPlot with the Four Parameter Logistic Function and the IC50 calculated. […] All tested compounds were reconstituted to stock solution in water.
(§3) Recombinant KLK7, KLK8 and KLK14 (>95% purity by SDS-PAGE, endotoxin <0.1 ng/μg, R&D, Minneapolis, U.S.) stocks were diluted with 1xPBS to a concentration of 120 nM. KLK7 and KLK14 were activated by addition of 1 mM f/c CaCl2 (Sigma, Dorset, U.K.), 0.05% v/v Brij35 (Sigma, Dorset, U.K.), 20 nM f/c thermolysin (Sigma, Dorset, U.K.) and incubated at 37°C for 1 hour. The reaction was stopped by addition of ethylenediaminetetraacetic acid (EDTA, 50 mM f/c). KLK8 was activated by addition of 11 nM f/c lysyl endopeptidase (Santa Cruz Biotechnology, Dallas, U.S.) and incubation at 37°C for 0.5 hour. […] The RFU value reached by the thermolysin control was used as the minimum RFU for calculating the % of inhibition for KLK7.
(§4) The diluent for all the tested compounds, protein and substrate (except KLK7, which was done with 10 mM Tris pH 7.8) was 1xPBS pH 8.0–8.9. The serially diluted ligands were mixed with diluted bovine trypsin (Sigma, Dorset, U.K.) or activated KLK14, or KLK5, or activated KLK8 or matriptase (catalytic domain only, >90% purity by SDS-PAGE, endotoxin <0.1 ng/μg, R&D, Minneapolis, U.S.) or activated KLK7 or human neutrophil elastase (purified from human plasma, >95% purity by SDS-PAGE, Abcam, Cambridge, U.K.) or porcine pancreatic elastase 1 (Sigma, Dorset, U.K.) or human plasma kallikrein or human plasma plasmin (purified from human plasma, ≥95% purity by SDS-PAGE, BioVision, Milpitas, U.S.). 20μL of the ligand-protein mixture was pipetted to a well of a 96-well microplate in triplicates. The reaction was started by addition of 90–100 μL of the diluted substrate solution (contained 0.05% v/v Brij35) and the plate incubated at 25°C but 37°C for KLK7. RFU reading for each well was taken 6 minutes (trypsin) or 15 minutes (KLK14, KLK5, KLK8, matriptase, human neutrophil elastase, porcine pancreatic elastase 1, plasma kallikrein and plasmin) or 20 hours (KLK7) after substrate addition.

A further experiment deals with T2, KLK7 (Homo sapiens, UniProt P49862).
T2 construct: purchased R&D
T2 sequence (P49862 30-253): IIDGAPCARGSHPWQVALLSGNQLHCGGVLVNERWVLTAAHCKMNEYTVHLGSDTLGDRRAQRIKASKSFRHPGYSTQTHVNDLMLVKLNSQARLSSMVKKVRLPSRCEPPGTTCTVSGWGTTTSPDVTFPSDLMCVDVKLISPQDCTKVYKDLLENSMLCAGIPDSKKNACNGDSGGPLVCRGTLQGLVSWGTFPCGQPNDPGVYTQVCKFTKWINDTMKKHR
As to conditions: for inhibition at 11 µM: read-out: % inhibition of KLK7. The procedure:
as §1, §2, §3, §4

A further experiment has as its target T3, KLK5 (Homo sapiens, UniProt Q9Y337).
T3 construct: purchased Novoprotein
T3 sequence (Q9Y337 23-293): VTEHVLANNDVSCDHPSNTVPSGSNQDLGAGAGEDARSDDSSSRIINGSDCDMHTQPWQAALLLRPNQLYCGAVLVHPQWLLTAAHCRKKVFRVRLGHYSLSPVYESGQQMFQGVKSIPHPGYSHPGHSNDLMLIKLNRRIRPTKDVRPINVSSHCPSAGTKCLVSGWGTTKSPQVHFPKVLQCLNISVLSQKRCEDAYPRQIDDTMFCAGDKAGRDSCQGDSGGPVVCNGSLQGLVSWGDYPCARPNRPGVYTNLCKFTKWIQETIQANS
In kind it is binding. As to conditions: for Stoichiometry (N) / ΔH / ΔS / ΔG / Ka: ITC; for ΔG: 25°C; for Ka: 25°C (Table S2, unit not given). The protocol:
ITC experiments were performed on a MicroCal iTC200 calorimeter (GE Healthcare, Uppsala, Sweden) at 298.15 K with a stirring speed of 750 revolutions per minute. Concentrated (450 μM) ligand solutions were injected into protein (KLK5) solution (20 μM, 280 μL sample volume) in the sample cell. Injection volumes were 2 μL for I10H and Analogue 1 and 1 μL for Analogue 2 and 6 with a spacing of 120 seconds between each injection. Concentrations of ligands were determined by dried weight and they were reconstituted to 10 mM stock in H2O. Concentration of KLK5 was determined by UV280 calculated with an extinction coefficient of 38680 and molecular weight of 32KDa (including weight of glycosylation). The protein solution were buffer exchanged using spin column to 1xPBS (137 mM NaCl, 2.7 mM KCl, 4.3 mM Na2HPO4, 1.47 mM KH2PO4 pH 8.0) or 20 mM MES buffer (with 150 mM NaCl, pH 5.5). Ligand stocks were diluted in those buffers (4.5 μL + 95.5 μL buffer), and then equal v/v % of H2O was added to the protein solution after buffer exchange to ensure matching buffer contents. Heat of dilution was undetectable in control experiments. Data were analyzed using OriginLab version 7.0.

[1] abbreviates: enzyme 9 nM, Boc-VPR-AMC 42 μM, 25°C, 15 minutes.
Setting [2] is: at 11 μM, enzyme 10 nM, BODIPY_FL casein 6.5 μg/mL, 37°C, 20 hours.

`CC[C@H](C)[C@@H]1NC(=O)[C@H](CO)NC(=O)[C@H](CCCCN)NC(=O)[C@H]([C@@H](C)O)NC(=O)[C@@H]2CSSC[C@H](NC(=O)[C@H](Cc3c[nH]cn3)NC(=O)[C@@H]3CCCN3C(=O)[C@@H]3CCCN3C1=O)C(=O)N[C@@H](Cc1ccccc1)C(=O)N1CCC[C@H]1C(=O)N[C@@H](CC(=O)O)C(=O)NCC(=O)N[C@@H](CCCNC(=N)N)C(=O)N2` [Analogue I10H] (cyclo(CFPDGRCTKSIPPH); disulfide 1-7) displayed an IC50 at KLK8 (setting [1]) of 1680 ± 51 nM. At KLK7 (setting [2]), the inhibition at 11 µM stood at 0%. Besides, the Kd at KLK5 (1xPBS pH 8.0, 25°C, read-out: ITC Kd) is 485 nM. Besides, at KLK5 (1xPBS pH 8.0, 25°C), the “Stoichiometry (N)” value is 1.06±0.02, the ΔH came to 1.963 ± 0.051 kcal/mol and the ΔS came out at 35.5 cal mol^-1 kelvin^-1. On KLK5, the ΔG is -8.621 kcal/mol and the Ka was determined as 2.1E6±5.6E5.

`CC[C@H](C)[C@@H]1NC(=O)[C@@H]2CCCN2C(=O)[C@@H]2CCCN2C(=O)[C@H]([C@@H](C)CC)NC(=O)[C@H](CO)NC(=O)[C@H](CCCCN)NC(=O)[C@H]([C@@H](C)O)NC(=O)[C@@H]2CSSC[C@H](NC1=O)C(=O)N[C@@H](Cc1ccccc1)C(=O)N1CCC[C@H]1C(=O)N[C@@H](CC(=O)O)C(=O)NCC(=O)N[C@@H](CCCNC(=N)N)C(=O)N2` [Native SFTI, Sunflower Trypsin Inhibitor 1, reference compound] registered a concentration for half-maximal inhibition (IC50) against KLK8 (setting [1]) of 1290 ± 251 nM. The inhibition at 11 µM on KLK7 (setting [2]) was determined as 18%.

As to `CC[C@H](C)[C@@H]1NC(=O)[C@H](CO)NC(=O)[C@H](CCCCN)NC(=O)[C@H]([C@@H](C)O)NC(=O)[C@@H]2CSSC[C@H](NC(=O)[C@H](Cc3c[nH]cn3)NC(=O)[C@@H]3CCCN3C(=O)[C@@H]3CCCN3C1=O)C(=O)N[C@@H](Cc1c[nH]c3ccccc13)C(=O)N1CCC[C@H]1C(=O)N[C@@H](CC(=O)O)C(=O)NCC(=O)N[C@@H](CCCNC(=N)N)C(=O)N2` [Analogue 2] (cyclo(CTKSIPPHCWPDGR); disulfide 1-9), the IC50 against KLK8 stood at 563 ± 14 nM. In addition, the inhibition at 11 µM on KLK7 was 28%. At KLK5, this compound displayed a Kd of 96 nM, a ΔG of -9.579 kcal/mol and a Ka of 1.0E7±1.8E6. Besides, at KLK5 (1xPBS pH 8.0, 25°C), the “Stoichiometry (N)” value amounted to 1.01±0.01, the ΔH is 4.196 ± 0.065 kcal/mol and the ΔS is 46.2 cal mol^-1 kelvin^-1.

At KLK8, `CC[C@H](C)[C@@H]1NC(=O)[C@H](CO)NC(=O)[C@H](CCCNC(=N)N)NC(=O)[C@H]([C@@H](C)O)NC(=O)[C@@H]2CSSC[C@H](NC(=O)[C@H](Cc3c[nH]cn3)NC(=O)[C@@H]3CCCN3C(=O)[C@@H]3CCCN3C1=O)C(=O)N[C@@H](Cc1c[nH]c3ccccc13)C(=O)N1CCC[C@H]1C(=O)N[C@@H](CC(=O)O)C(=O)NCC(=O)N[C@@H](CCCNC(=N)N)C(=O)N2` [Analogue 6] (cyclo(CTRSIPPHCWPDGR); disulfide 1-9) displayed an IC50 of 373 ± 31 nM. It took 534 ± 29 nM to reach half-maximal inhibition against KLK7 (IC50). In addition, on KLK5, the Kd is 20 nM, the ΔG is -10.51 kcal/mol and the Ka came to 5.0E7±1.2E7. The “increase in binding affinity for KLK5 from I10H” value on KLK5 (ITC Kd) was “around 25 times”. Also, on KLK5 (1xPBS pH 8.0, 25°C), the “Stoichiometry (N)” value turned out to be 1.01±0.01, the ΔH is 2.014 ± 0.017 kcal/mol and the ΔS came out at 42.0 cal mol^-1 kelvin^-1.

Usually IC50 stands for the concentration at which inhibition is half-maximal. High values mean a need for much substance, low ones inhibition by little substance. A word on the inhibition: it is the drop in the measured response relative to a control, in per cent. For orientation: Kd means the concentration at which binding is half-saturated.
